Experiments:
[1] = In vivo biodistribution and pharmacokinetics in tumor free mice (gamma counter); settings: for Biodistribution, comparison of the two probes: FIG. 17B; for Clearance (time course of activity in vital tissues and blood): comparison of the two probes
Protocol: The in vivo biodistribution and pharmacokinetics of ([^177Lu]-Compound 6) and BnDOTA[^177Lu] was investigated in tumor free mice. See FIGS. 17A-17B and Tables 2 and 3. Mice were dosed with radiolabeled probes at t=0 and sacrificed at various time points. Organs were harvested and activity was counted by gamma counter. Tables 2-3 show the serial biodistribution data for the analyzed organs of Compound 6 and Compound 2, respectively. FIG. 17A overlays the time course in activity in either vital tissues (left panel) or the blood (right panel) between the two probes.

SW-1222 tumor = assay: In vivo tumor uptake using 3-step PRIT; design: species or system mice; settings: for Tumor Uptake: SW-1222 tumor-bearing mice pretreated with anti-GPA33/anti-DOTA BsAb and DOTA-dendrimer clearing agent, in %ID/g
Protocol: The in vivo tumor uptake of [F]Cy3D [^177Lu] ([^177Lu]-Compound 6) was analyzed in tumor-bearing (SW-1222) mice.

[2] = Lg. Intestine, 1 h after dosing
[3] = Lg. Intestine, 2 h after dosing
[4] = Lg. Intestine, 4 h after dosing
[5] = Lg. Intestine, 24 h after dosing
[6] = Lg. Intestine, 48 h after dosing
[7] = Sm. Intestine, 1 h after dosing
[8] = Sm. Intestine, 2 h after dosing
[9] = Sm. Intestine, 4 h after dosing
[10] = Sm. Intestine, 24 h after dosing
[11] = Sm. Intestine, 48 h after dosing

CC1(C)C(=CC=CC2=[N+](CCCCCC(=O)NCC[N+](C)(C)C[B-](F)(F)F)c3ccc(S(=O)(=O)[O-])cc3C2(C)C)N(CCCCCC(=O)Nc2ccc(CC3CN(CC(=O)[O-])CCN(CC(=O)[O-])CCN(CC(=O)[O-])CCN3CC(=O)[O-])cc2)c2ccc(S(=O)(=O)[O-])cc21.[177Lu+3] (stereo not shown) [[^177Lu]-Compound 6, [F]Cy3D[^177Lu]]
Uptake ([1]; Blood, 1 h after dosing): 0.122 ± 0.005 % injected Dose/gram | Uptake ([1]; Blood, 2 h after dosing): 0.034 ± 0.005 % injected Dose/gram | Uptake ([1]; Blood, 4 h after dosing): 0.014 ± 0.001 % injected Dose/gram | Uptake ([1]; Blood, 24 h after dosing): 0.004 ± 0.002 % injected Dose/gram | Uptake ([1]; Blood, 48 h after dosing): 0.003 ± 0 % injected Dose/gram | Uptake ([1]; Bone, 1 h after dosing): 0.065 ± 0.009 % injected Dose/gram | Uptake ([1]; Bone, 2 h after dosing): 0.043 ± 0.007 % injected Dose/gram | Uptake ([1]; Bone, 4 h after dosing): 0.038 ± 0.012 % injected Dose/gram | Uptake ([1]; Bone, 24 h after dosing): 0.019 ± 0.003 % injected Dose/gram | Uptake ([1]; Bone, 48 h after dosing): 0.021 ± 0.001 % injected Dose/gram | Uptake ([1]; Brain, 1 h after dosing): 0.007 ± 0.001 % injected Dose/gram | Uptake ([1]; Brain, 2 h after dosing): 0.014 ± 0.01 % injected Dose/gram | Uptake ([1]; Brain, 4 h after dosing): 0.004 ± 0 % injected Dose/gram | Uptake ([1]; Brain, 24 h after dosing): 0.001 ± 0.001 % injected Dose/gram | Uptake ([1]; Brain, 48 h after dosing): 0.001 ± 0 % injected Dose/gram | Biodistribution, comparison of the two probes [1]: comparable biodistribution | Uptake ([1]; Heart, 1 h after dosing): 0.056 ± 0.006 % injected Dose/gram | Uptake ([1]; Heart, 2 h after dosing): 0.027 ± 0.004 % injected Dose/gram | Uptake ([1]; Heart, 4 h after dosing): 0.017 ± 0 % injected Dose/gram | Uptake ([1]; Heart, 24 h after dosing): 0.008 ± 0.006 % injected Dose/gram | Uptake ([1]; Heart, 48 h after dosing): 0.009 ± 0 % injected Dose/gram | Uptake ([1]; Kidneys, 1 h after dosing): 1.021 ± 0.096 % injected Dose/gram | Uptake ([1]; Kidneys, 2 h after dosing): 1.147 ± 0.184 % injected Dose/gram | Uptake ([1]; Kidneys, 4 h after dosing): 0.989 ± 0.1 % injected Dose/gram | Uptake ([1]; Kidneys, 24 h after dosing): 0.66 ± 0.07 % injected Dose/gram | Uptake ([1]; Kidneys, 48 h after dosing): 0.5 ± 0.05 % injected Dose/gram | Uptake [1, 2]: 0.046 ± 0.009 % injected Dose/gram | Uptake [1, 3]: 2.577 ± 0.409 % injected Dose/gram | Uptake [1, 4]: 2.356 ± 1.032 % injected Dose/gram | Uptake [1, 5]: 0.047 ± 0.016 % injected Dose/gram | Uptake [1, 6]: 0.035 ± 0.021 % injected Dose/gram | Uptake ([1]; Liver, 1 h after dosing): 0.119 ± 0.015 % injected Dose/gram | Uptake ([1]; Liver, 2 h after dosing): 0.12 ± 0.025 % injected Dose/gram | Uptake ([1]; Liver, 4 h after dosing): 0.088 ± 0.009 % injected Dose/gram | Uptake ([1]; Liver, 24 h after dosing): 0.063 ± 0.007 % injected Dose/gram | Uptake ([1]; Liver, 48 h after dosing): 0.052 ± 0.007 % injected Dose/gram | Uptake ([1]; Lungs, 1 h after dosing): 0.142 ± 0.017 % injected Dose/gram | Uptake ([1]; Lungs, 2 h after dosing): 0.071 ± 0.01 % injected Dose/gram | Uptake ([1]; Lungs, 4 h after dosing): 0.041 ± 0.004 % injected Dose/gram | Uptake ([1]; Lungs, 24 h after dosing): 0.023 ± 0.005 % injected Dose/gram | Uptake ([1]; Lungs, 48 h after dosing): 0.017 ± 0.001 % injected Dose/gram | Uptake ([1]; Muscle, 1 h after dosing): 0.04 ± 0.009 % injected Dose/gram | Uptake ([1]; Muscle, 2 h after dosing): 0.032 ± 0.014 % injected Dose/gram | Uptake ([1]; Muscle, 4 h after dosing): 0.023 ± 0.013 % injected Dose/gram | Uptake ([1]; Muscle, 24 h after dosing): 0.008 ± 0.003 % injected Dose/gram | Uptake ([1]; Muscle, 48 h after dosing): 0.007 ± 0 % injected Dose/gram | Uptake [1, 7]: 0.914 ± 0.311 % injected Dose/gram | Uptake [1, 8]: 0.958 ± 0.379 % injected Dose/gram | Uptake [1, 9]: 0.169 ± 0.258 % injected Dose/gram | Uptake [1, 10]: 0.022 ± 0.007 % injected Dose/gram | Uptake [1, 11]: 0.016 ± 0.003 % injected Dose/gram | Uptake ([1]; Spleen, 1 h after dosing): 0.06 ± 0.008 % injected Dose/gram | Uptake ([1]; Spleen, 2 h after dosing): 0.048 ± 0.021 % injected Dose/gram | Uptake ([1]; Spleen, 4 h after dosing): 0.032 ± 0.004 % injected Dose/gram | Uptake ([1]; Spleen, 24 h after dosing): 0.029 ± 0.002 % injected Dose/gram | Uptake ([1]; Spleen, 48 h after dosing): 0.022 ± 0.001 % injected Dose/gram | Uptake ([1]; Stomach, 1 h after dosing): 0.734 ± 1.363 % injected Dose/gram | Uptake ([1]; Stomach, 2 h after dosing): 0.985 ± 0.861 % injected Dose/gram | Uptake ([1]; Stomach, 4 h after dosing): 0.186 ± 0.256 % injected Dose/gram | Uptake ([1]; Stomach, 24 h after dosing): 0.02 ± 0.011 % injected Dose/gram | Uptake ([1]; Stomach, 48 h after dosing): 0.019 ± 0 % injected Dose/gram | Uptake ([1]; Tail, 1 h after dosing): 0.279 ± 0.079 % injected Dose/gram | Uptake ([1]; Tail, 2 h after dosing): 0.237 ± 0.128 % injected Dose/gram | Uptake ([1]; Tail, 4 h after dosing): 0.154 ± 0.102 % injected Dose/gram | Uptake ([1]; Tail, 24 h after dosing): 0.079 ± 0.026 % injected Dose/gram | Uptake ([1]; Tail, 48 h after dosing): 0.018 ± 0.016 % injected Dose/gram | Clearance (time course of activity in vital tissues and blood) [1]: cleared at similar rates | Tumor Uptake (SW-1222 tumor; 1 h): 25.24 ± 4.49 | Tumor Uptake (SW-1222 tumor; 4 h): 21.93 ± 2.25 | Tumor Uptake (SW-1222 tumor; 24 h): 23.17 ± 4.83 | Tumor Uptake (SW-1222 tumor; 48 h): 22.13 ± 5.37 | Binding to BsAb-treated tumor in vivo compared to the standard BnDOTA[^177Lu] (SW-1222 tumor; SW-1222 tumor-bearing mice, 3-step PRIT): equal specificity and efficacy

BnDOTA[^177Lu] [[^177Lu]-Compound 2, reference compound]
Uptake ([1]; Blood, 1 h after dosing): 0.068 ± 0.029 % injected Dose/gram | Uptake ([1]; Blood, 2 h after dosing): 0.013 ± 0.005 % injected Dose/gram | Uptake ([1]; Blood, 4 h after dosing): 0.001 ± 0 % injected Dose/gram | Uptake ([1]; Blood, 24 h after dosing): 0.001 ± 0 % injected Dose/gram | Uptake ([1]; Blood, 48 h after dosing): 0.001 ± 0.001 % injected Dose/gram | Uptake ([1]; Bone, 1 h after dosing): 0.04 ± 0.012 % injected Dose/gram | Uptake ([1]; Bone, 2 h after dosing): 0.325 ± 0.276 % injected Dose/gram | Uptake ([1]; Bone, 4 h after dosing): 0.015 ± 0.013 % injected Dose/gram | Uptake ([1]; Bone, 24 h after dosing): 0.01 ± 0.008 % injected Dose/gram | Uptake ([1]; Bone, 48 h after dosing): 0.018 ± 0.028 % injected Dose/gram | Uptake ([1]; Brain, 1 h after dosing): 0.015 ± 0.006 % injected Dose/gram | Uptake ([1]; Brain, 2 h after dosing): 0.025 ± 0.01 % injected Dose/gram | Uptake ([1]; Brain, 4 h after dosing): 0.01 ± 0 % injected Dose/gram | Uptake ([1]; Brain, 24 h after dosing): 0.001 ± 0 % injected Dose/gram | Uptake ([1]; Brain, 48 h after dosing): 0.001 ± 0.001 % injected Dose/gram | Biodistribution, comparison of the two probes [1]: comparable biodistribution | Uptake ([1]; Heart, 1 h after dosing): 0.033 ± 0.013 % injected Dose/gram | Uptake ([1]; Heart, 2 h after dosing): 0.023 ± 0.005 % injected Dose/gram | Uptake ([1]; Heart, 4 h after dosing): 0.01 ± 0 % injected Dose/gram | Uptake ([1]; Heart, 24 h after dosing): 0.01 ± 0 % injected Dose/gram | Uptake ([1]; Heart, 48 h after dosing): 0.016 ± 0.03 % injected Dose/gram | Uptake ([1]; Kidneys, 1 h after dosing): 0.86 ± 0.177 % injected Dose/gram | Uptake ([1]; Kidneys, 2 h after dosing): 0.8 ± 0.065 % injected Dose/gram | Uptake ([1]; Kidneys, 4 h after dosing): 0.695 ± 0.106 % injected Dose/gram | Uptake ([1]; Kidneys, 24 h after dosing): 0.448 ± 0.109 % injected Dose/gram | Uptake ([1]; Kidneys, 48 h after dosing): 0.233 ± 0.153 % injected Dose/gram | Uptake [1, 2]: 0.088 ± 0.083 % injected Dose/gram | Uptake [1, 3]: 2.878 ± 2.718 % injected Dose/gram | Uptake [1, 4]: 1.865 ± 0.963 % injected Dose/gram | Uptake [1, 5]: 0.02 ± 0 % injected Dose/gram | Uptake [1, 6]: 0.018 ± 0.013 % injected Dose/gram | Uptake ([1]; Liver, 1 h after dosing): 0.658 ± 0.074 % injected Dose/gram | Uptake ([1]; Liver, 2 h after dosing): 0.358 ± 0.083 % injected Dose/gram | Uptake ([1]; Liver, 4 h after dosing): 0.065 ± 0.024 % injected Dose/gram | Uptake ([1]; Liver, 24 h after dosing): 0.028 ± 0.01 % injected Dose/gram | Uptake ([1]; Liver, 48 h after dosing): 0.018 ± 0.012 % injected Dose/gram | Uptake ([1]; Lungs, 1 h after dosing): 0.083 ± 0.032 % injected Dose/gram | Uptake ([1]; Lungs, 2 h after dosing): 0.048 ± 0.005 % injected Dose/gram | Uptake ([1]; Lungs, 4 h after dosing): 0.023 ± 0.005 % injected Dose/gram | Uptake ([1]; Lungs, 24 h after dosing): 0.013 ± 0.005 % injected Dose/gram | Uptake ([1]; Lungs, 48 h after dosing): 0.01 ± 0 % injected Dose/gram | Uptake ([1]; Muscle, 1 h after dosing): 0.028 ± 0.01 % injected Dose/gram | Uptake ([1]; Muscle, 2 h after dosing): 0.043 ± 0.013 % injected Dose/gram | Uptake ([1]; Muscle, 4 h after dosing): 0.013 ± 0.005 % injected Dose/gram | Uptake ([1]; Muscle, 24 h after dosing): 0.003 ± 0.005 % injected Dose/gram | Uptake ([1]; Muscle, 48 h after dosing): 0.051 ± 0.1 % injected Dose/gram | Uptake [1, 7]: 1.493 ± 0.554 % injected Dose/gram | Uptake [1, 8]: 0.86 ± 0.389 % injected Dose/gram | Uptake [1, 9]: 0.128 ± 0.05 % injected Dose/gram | Uptake [1, 10]: 0.01 ± 0 % injected Dose/gram | Uptake [1, 11]: 0.005 ± 0.006 % injected Dose/gram | Uptake ([1]; Spleen, 1 h after dosing): 0.06 ± 0.041 % injected Dose/gram | Uptake ([1]; Spleen, 2 h after dosing): 0.053 ± 0.005 % injected Dose/gram | Uptake ([1]; Spleen, 4 h after dosing): 0.025 ± 0.01 % injected Dose/gram | Uptake ([1]; Spleen, 24 h after dosing): 0.023 ± 0.005 % injected Dose/gram | Uptake ([1]; Spleen, 48 h after dosing): 0.01 ± 0.012 % injected Dose/gram | Uptake ([1]; Stomach, 1 h after dosing): 0.06 ± 0.055 % injected Dose/gram | Uptake ([1]; Stomach, 2 h after dosing): 0.2 ± 0.071 % injected Dose/gram | Uptake ([1]; Stomach, 4 h after dosing): 0.045 ± 0.017 % injected Dose/gram | Uptake ([1]; Stomach, 24 h after dosing): 0.01 ± 0 % injected Dose/gram | Uptake ([1]; Stomach, 48 h after dosing): 0.013 ± 0.013 % injected Dose/gram | Uptake ([1]; Tail, 1 h after dosing): 0.245 ± 0.179 % injected Dose/gram | Uptake ([1]; Tail, 2 h after dosing): 0.183 ± 0.056 % injected Dose/gram | Uptake ([1]; Tail, 4 h after dosing): 0.118 ± 0.041 % injected Dose/gram | Uptake ([1]; Tail, 24 h after dosing): 0.065 ± 0.044 % injected Dose/gram | Uptake ([1]; Tail, 48 h after dosing): 0.01 ± 0.008 % injected Dose/gram | Clearance (time course of activity in vital tissues and blood) [1]: cleared at similar rates

From patent US12533428B2, “Multimodal fluorine-CY3/5/7-DOTA-hapten compositions, diagnostics, fluorescence guided surgery and radioimmunotherapy” (Memorial Sloan Kettering Cancer Center, priority 2019, dated 2026)
